# Assay results from paper PMC10898118, “Biocatalytic cascade to polysaccharide amination” (Biotechnology for Biofuels and Bioproducts, 2024).
# Molecular target: T1, CvATA (Chromobacterium violaceum, UniProt Q7NWG4)
# T1 construct: gene CV_2025; dimer
# T1 sequence (Q7NWG4 1-459): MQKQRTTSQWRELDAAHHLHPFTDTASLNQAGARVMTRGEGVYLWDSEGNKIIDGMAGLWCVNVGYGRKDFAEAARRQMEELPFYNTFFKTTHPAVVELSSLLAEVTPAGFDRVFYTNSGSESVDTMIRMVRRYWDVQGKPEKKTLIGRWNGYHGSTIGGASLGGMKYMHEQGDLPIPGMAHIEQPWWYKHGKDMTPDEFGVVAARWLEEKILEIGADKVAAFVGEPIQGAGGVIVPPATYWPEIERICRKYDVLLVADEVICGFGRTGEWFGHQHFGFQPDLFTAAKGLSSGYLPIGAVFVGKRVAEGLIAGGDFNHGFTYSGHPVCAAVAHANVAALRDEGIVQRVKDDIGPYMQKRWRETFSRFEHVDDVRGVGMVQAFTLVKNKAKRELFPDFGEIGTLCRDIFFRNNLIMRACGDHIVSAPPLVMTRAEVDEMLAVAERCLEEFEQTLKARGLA
# Assay: acetophenone assay, UV […] nm
# Type: biochemical
# Settings: 5 mM galactose pre-oxidized in situ by FgrGaOx (catalase, HRP), 5 mM (S)-1-phenylethylamine, 20 µM PLP, 50 mM HEPES pH 7.5, 37 °C
smiles,measurement,value
O=C[C@@H](O)[C@H](O)[C@H](O)[C@@H](O)C=O [oxidized galactose],"acetophenone assay, UV 245 nm",initial activity of CvATA on pyruvate and oxidized galactose
